Measurements taken from patent US20230263792A1, “USE OF 2,3,5-SUBSTITUTED THIOPHENE COMPOUND FOR PREVENTING, ALLEVIATION, OR TREATING MASTOCYTOSIS” (PHAROS IBIO CO., LTD, priority 2020, published 2023).

Legend:
[1] = tested on: c-kit D816V mutant Ba/F3 cell line; test: Cell cycle FACS assay, c-kit D816V Ba/F3; assay type: cell-based; conditions: 1 μM, 24 hours, FIGS. 4 and 5
Procedure: The c-kit D816V mutant Ba/F3 cell line was treated with 1 μM of PHI-101, and then the SubG1/GO-1 population was analyzed by cell cycle FACS assay.
Specifically, the c-kit D816V mutant Ba/F3 cell line was adjusted to a concentration of 1×10^6 cells/ml and treated with each of PHI-101 and the control compound sunitinib at a concentration of 1 μM for 24 hours. Thereafter, the medium was removed, and the c-kit D816V mutant Ba/F3 cell line was fixed in 70% ethanol at 4° C. for 24 hours, and then incubated in a PBS buffer solution containing 40 μg/ml of propidium iodide (PI) and 100 μg/ml of RNase for 30 minutes to completely stain the total DNA. Cell cycle analysis of the stained cells was performed using a flow cytometer (FACS-C6, BD). The proportion of cells in G0/G1 phase, S phase and G2/M phase was measured, and based on the measurement results, the SubG1/G0-1 population was determined.

[2] = tested on: c-kit D816V mutant Ba/F3 cell line; test: Annexin V-PI FACS apoptosis analysis, c-kit D816V Ba/F3; assay type: cell-based; conditions: 0.1, 1 and 10 μM, 24 hours, FIG. 3
Procedure: Specifically, the c-kit D816V mutant Ba/F3 cell line was adjusted to a concentration of 1×10^6 cells/ml and treated with each of PHI-101 at concentrations of 0.1, 1 and 10 μM and the control compound sunitinib at concentrations of 1 and 10 μM for 24 hours. Thereafter, the medium was removed and the cells were washed once with 1 ml PBS. The PBS was removed by centrifugation at 1,000 rpm for 5 minutes. The cells were dissolved in 100 μl of PBS containing Ca^2+ and Mg^2+ and allowed to react with 5 μl of Annexin V for 20 minutes. After completion of the reaction, 400 μl of PBS containing Ca^2+ and Mg^2+ was added, and 5 μl of propidium iodide (PI) was added, and then the degree of apoptotic cell death was analyzed by FACS (fluorescence activated cell sorter) assay using a flow cytometer (FACS-C6, BD).

[3] = tested on: cleaved PARP and cleaved caspase-3 in HMC-1.2 cell line; test: Western blot of cleaved PARP and cleaved caspase-3, HMC-1.2; assay type: cell-based; conditions: HMC-1.2, 0.1 and 1 μM, controls 1 μM, FIG. 8
Procedure: Specifically, the c-kit D816V mutant Ba/F3 cell line was dispensed at a concentration of 1×10^6 cells/ml, treated with each of the control compounds and PHI-101 at concentrations of 0.1, 1 and 10 μM, and then cultured for 2 hours. Next, lysates of the cells were obtained using lysis buffer (50 mM Tris-HCl pH 7.5, 1% NP40, 1 mM EDTA, 150 mM NaCl, 5 mM, Na3VO4 and 2.5 mM NaF, and a protease inhibitor cocktail). Equal amounts of the cell lysates were electrophoresed using 8% SDS-PAGE gel at 100 V for 1 hour and 30 minutes, and the separated protein was electrically transferred to nitrocellulose membranes. […] Next, the membranes were washed three times with TBST for 5 minutes each time and treated with a chemiluminescent substrate reagent, and the expression level of the protein was measured by detecting luminescence with an X-ray film in the dark.
A mastocytosis cell line was treated with PHI-101, and the levels of cleaved PARP and cleaved caspase-3, which are apoptosis markers, were analyzed. […]
Specifically, the apoptotic effect of PHI-101 against the HMC-1.2 cell line was analyzed in the same manner as in Example 1-2, except that the HMC-1.2 cell line was treated with each of the control compounds at a concentration of 1 μM and PHI-101 at concentrations of 0.1 and 1 μM, and that cleaved PARP and cleaved caspase-3, each diluted at 1:5,000, were used as primary antibodies.

[4] = Body weight monitoring in mastocytosis mouse model; assay type: in vivo, NOD SCID female mice; conditions: 80 mg/kg oral once daily for 3 weeks
Procedure: Thereafter, when the average tumor volume reached 150 to 200 mm^3, 4 mice were assigned to each group so that the average tumor volume at each group and treatment time was the same between the groups. Then, each of imatinib at a dose of 90 mg/kg, sunitinib at doses of 20 and 40 mg/kg, and PHI-101 at doses of 7, 20, 40 and 80 mg/kg was administered orally to the mice once daily for 3 weeks. For oral administration, each compound was dissolved in 5% 1-methyl-2-pyrrolidone and then completely mixed in 15% Kolliphor, 30% PEG E400 HS15 and 50% 0.05M citric acid.
Specifically, while the presence or absence of abnormalities in the mastocytosis mouse model of Example 3-1 was monitored daily by checking the skin condition, bleeding and stool status, whether the body weight changed was checked by measuring the mouse body weight at intervals of 3 days after the start of oral administration of each drug. In addition, the width and length of the tumor were measured using a caliper at 3-day intervals, and the tumor volume was calculated using the following equation.

[5] = tested on: HMC-1.2 cell line (imatinib-resistant cell line, having c-kit G560V/D816V mutation); test: Growth inhibition of mastocytosis cell line HMC-1.2; assay type: cell-based; conditions: HMC-1.2, 72 hours
Procedure: [Worded in the source for another cell line; this cell line is reported under the same test.] Specifically, 100 μl of a Ba/F3 cell line with a c-kit D816V mutation (FIG. 1) was added to each well of a 96-well plate at a concentration of 10,000 cells/100 μl. […] As the control compounds, imatinib and sunitinib which are c-kit inhibitors were used.

NC(=O)Nc1cc(C#Cc2cccc(F)c2)sc1C(=O)N[C@H]1CCCNC1 [PHI-101]
SubG1/G0-1 population (cell cycle progression) [1]: SubG1/G0-1 population was increased | apoptosis induction (Annexin V-PI FACS) [2]: strongly induced apoptosis even at a concentration of 0.1 μM | levels of cleaved PARP and cleaved caspase-3 [3]: higher than those in the HMC-1.2 cell lines treated with the control compounds | weight loss [4]: no weight loss | GI50 [5]: 33 nM
